Experimental findings from patent US6475724B1, “Nucleic acids, kits, and methods for the diagnosis, prognosis and treatment of glaucoma and related disorders” (The Regents of the University of California, priority 1997, dated 2002) are described below.

One data set deals with TIGR gene. Nature of the data set: Induction of the TIGR gene by stress stimulants. Format: cell-based.
Data set [1] can be described thus: IOP response to topical dexamethasone eye drops, Armaly criteria. It is filed as in vivo, human. The note with it: topical dexamethasone eye drops (0.1%) four times a day for four weeks; one line per subject (subjects 1-7); pre- vs post-treatment IOP. How it is done: Subjects are given standard topical dexamethasone eye drops (0.1%) four times a day, for four weeks. Pre-treatment and post-treatment IOP readings are taken and patients are classified as having high (>16 mmHg), intermediate (6-16 mmHg) or low (<6 mmHg) IOP responses under the “Armaly” criteria. DNA samples are obtained from four subjects having high or intermediate IOP changes. Samples from several non-responder patients were also taken. The DNA samples were analyzed for the presence of the TIGRmt11 variant sequence, as discussed above.

In the next data set the test system is HTM cells. In words: TIGR 5′ region/promoter AP reporter activity in HTM cells. It is filed as cell-based, human. As to conditions: attached reporter gene. As to the method:
The 283 base 5′ fragment of the TIGR 5′ region (SEQ ID NO: 37) is amplified from genomic DNA of a normal human subject as discusssed in Example 3. The DNA is cloned into a pSEAP vector (Clontech, Calif.) so that transcription was under the control of the TIGR sequences. More specifically, pSEAP2-enhancer vector is digested with Srfl to produce a blunt end. The 283 bp fragment is blunt end ligated to the vector using T4 ligase for 2 hours. The vector is transfected into DH5 cells to establish a plasmid clone, TMRE-1/pSEAP. PCR sequencing is used to verify the clone sequence as correct. Similarly, the equivalent genomic fragment amplified from a steroid responder sample, identified as mutant TIGR.mt11, is cloned in pSEAP2-enhancer and called clone TIGR.mt11/pSEAP.
HTM cells, Cos cells (COS-7), and HeLa cells (HeLa 229) are seeded at 10^6 cells per well and incubated with 1 ug of the plasmid DNA to transfect using Lipofectin reagent (GIBCO, Life Technologies, Md.). Some samples of cells were also treated with dexamethasone (DEX). Then, 24, 48, and 72 hours after transfection, AP activity was measured. Cells are collected using a buffer containing L-homoarginine and the chemiluminescent substrate CSPD and a chemiluminescent enhancer added to the samples. The expression levels are then recorded using a luminometer or by brief exposure to X-ray film. […]
(A reporter such as luciferase makes a cellular process visible.)

Entries after “also recorded” stand apart in the source; their conditions may differ.

On to `OO` [H2O2], for which, in the data set with TIGR gene, the “induction of TIGR gene” value is “induced”.
In the case of `CCCCCCCCCCCCCC(=O)O[C@@H]1[C@@H](C)[C@@]2(O)[C@@H](C=C(CO)C[C@]3(O)C(=O)C(C)=C[C@@H]23)[C@H]2C(C)(C)[C@]12OC(C)=O` [TPA, 12-O-tetradecanolyphorbol-13-acetate], in the data set with TIGR gene, the “induction of TIGR gene” value is given as “induced”.
On to `C[C@@H]1C[C@H]2[C@@H]3CCC4=CC(=O)C=C[C@]4(C)[C@@]3(F)[C@@H](O)C[C@]2(C)[C@@]1(O)C(=O)CO` [dexamethasone], for which, in data set [1], the “CS-IOP Response” value was “Low (low (<6 mmHg)); also recorded: Intermediate (intermediate (6-16 mmHg)); also recorded: High (high (>16 mmHg))”.

B1: SEQ ID NO: 37: 283 bp region from 5340 to 5044 of SEQ ID NO: 3, TIGR 5′ regulatory region (nucleic acid, listed as Homo sapiens)
DNA: AACTATTATTGGGGTATGGGTGCATAAATTGGGATGTTCTTTTTAAAAAGAAACTCCAAACAGACTTCTGGAAGGTTATTTTCTAAGAATCTTGCTGGCAGCGTGAAGGCAACCCCCCTGTGCACAGCCCCACCCAGCCTCACGTGGCCACCTCTGTCTTCCCCCATGAAGGGCTGGCTCCCCAGTATATATAAACCTCTCTGGAGCTCGGGCATGAGCCAGCAAGGCCACCCATCCAGGCACCTCTCAGCACAGCAGAGCTTTCCAGAGGAAGCCTCACCAA
With B1, the “expression of AP activity, HTM cells compared with HeLa or Cos cells” value in the data set on HTM cells is reported as “much higher”.
